Measurements: publication PMC11435205, “TnP and AHR-CYP1A1 Signaling Crosstalk in an Injury-Induced Zebrafish Inflammation Model” (Pharmaceuticals, 2024)

Key:
CYP1 = conditions: cited from earlier work
CYP1A1 = target: T1, CYP1A1 (Homo sapiens, UniProt P04798); test: in vitro; conditions: pH 7.4, CYP1A1 enzyme activity (%), MNF 2.5 µM, positive control
T1 sequence (P04798 1-512): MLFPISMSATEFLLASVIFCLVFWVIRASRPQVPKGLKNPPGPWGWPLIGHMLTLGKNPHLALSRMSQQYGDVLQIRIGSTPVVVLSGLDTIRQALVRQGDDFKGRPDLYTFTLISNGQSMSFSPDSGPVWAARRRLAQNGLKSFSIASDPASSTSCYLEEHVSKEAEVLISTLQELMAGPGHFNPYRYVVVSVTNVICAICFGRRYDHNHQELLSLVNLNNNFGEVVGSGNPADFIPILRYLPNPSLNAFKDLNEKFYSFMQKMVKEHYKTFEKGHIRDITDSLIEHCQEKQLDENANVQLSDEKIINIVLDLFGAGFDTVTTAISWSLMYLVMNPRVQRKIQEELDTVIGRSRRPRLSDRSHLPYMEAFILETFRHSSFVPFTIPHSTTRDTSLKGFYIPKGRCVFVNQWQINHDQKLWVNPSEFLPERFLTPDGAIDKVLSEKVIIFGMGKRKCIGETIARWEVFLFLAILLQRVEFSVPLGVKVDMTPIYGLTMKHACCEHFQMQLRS
Procedure: The ethoxyresorufin deethylase (EROD) assay was performed using recombinant human CYP1A1 to determine TnP-mediated inhibition of CYP1A1 enzyme activity according to Wincent et al. [47], with minor changes. In brief, 2.5 nM CYP1A1 was pre-incubated with different concentrations of TnP in Tris-HCl buffer (0.1 M, pH 7.4) with EDTA (1 mM) at 37 °C for 3 min followed by the addition of ethoxyresorufin (0.1 μM) and NADPH (0.4 mM). Formation of resorufin was quantified in triplicates using a Tecan Infinite F200 multiwell plate reader (Tecan Group Ltd., Männedorf, Switzerland) with the excitation/emission wavelengths of 530/590 nm every 4 s for 2 min. The enzyme activity was determined by comparing the rate of resorufin formation compared to the vehicle control DMSO. The TnP concentration causing 50% inhibition of EROD activity (IC50) was estimated by nonlinear dose–response inhibition analysis using GraphPad Prism 9.1 (GraphPad Software, San Diego, CA, USA).
All the concentration were read at least in triplicate. Dimethyl sulfoxide – DMSO was tested
as negative control, and 3’-methoxy-4’-nitroflavone – MNF as positive control.

[1] = system: (DOX)-induced cardiotoxicity; conditions: zebrafish; cited from earlier work
From the text: In addition to its implication in the resolution of inflammation and tissue injury, Asnani et al. recently concluded that inhibition of CYP1 was protective of (DOX)-induced cardiotoxicity.

For `O=Cc1c2c(cc3c1=Nc1ccccc1-3)=Nc1ccccc1-2` [FICZ], the clearance dependence (CYP1) is given as “clearance is dependent on CYP1”.

Work on `COc1cc(-c2cc(=O)c3ccccc3o2)ccc1[N+](=O)[O-]` [MNF] yielded an activity (CYP1A1; replicate I) of 1.54%, an activity (CYP1A1; replicate II) of 1.54% and an activity (CYP1A1; replicate III) of 1.71%. For the same molecule, the activity (CYP1A1; replicate IV) was 1.67%, the activity (CYP1A1; replicate IX) was 0.51% and the activity (CYP1A1; replicate V) was 1.31%. The activity (CYP1A1; replicate VI) was 1.7%, the activity (CYP1A1; replicate VII) was 0.51% and the activity (CYP1A1; replicate VIII) was 0.51%.

In the case of `COc1c2ccoc2cc2oc(C)cc(=O)c12` [visnagin], the “effect on DOX-induced cardiotoxicity” value [1] is listed as “cardioprotection”.
